Values after ≈ are worked out from the molar mass of the structure shown.
Tests used:
[1] = Stability in artificial gastric acid at 1 mg/ml assessed as residual rate after 2 hrs by HPLC analysis relative to control; assay type: ADME; details: read-out: Stability
[2] = Stability in artificial gastric acid at 1 mg/ml assessed as residual rate after 2.5 hrs by HPLC analysis relative to control; assay type: ADME; details: read-out: Stability
Enterococcus faecium = assay: Antibacterial activity against vancomycin-resistant Enterococcus faecium CLSI-based double dilution method; assay type: functional
[3] = Aqueous solubility of compound; assay type: physicochemical; details: water
Enterococcus faecalis = assay: Antibacterial activity against linezolid-resistant Enterococcus faecalis CLSI-based double dilution method; assay type: functional
[4] = Stability in artificial gastric acid at 1 mg/ml assessed as residual rate after 3.5 hrs by HPLC analysis relative to control; assay type: ADME; details: read-out: Stability
[5] = Stability in artificial gastric acid at 1 mg/ml assessed as residual rate after 30 mins by HPLC analysis relative to control; assay type: ADME; details: read-out: Stability
[6] = Stability in artificial gastric acid at 1 mg/ml assessed as residual rate after 4 hrs by HPLC analysis relative to control; assay type: ADME; details: read-out: Stability
[7] = Stability in artificial gastric acid at 1 mg/ml assessed as residual rate after 1 hr by HPLC analysis relative to control; assay type: ADME; details: read-out: Stability
[8] = Stability in artificial gastric acid at 1 mg/ml assessed as residual rate measured immediately by HPLC analysis relative to control; assay type: ADME; details: read-out: Stability
[9] = Stability in artificial gastric acid at 1 mg/ml assessed as residual rate after 1.5 hrs by HPLC analysis relative to control; assay type: ADME; details: read-out: Stability
Staphylococcus aureus [10] = assay: Antibacterial activity against methicillin-resistant Staphylococcus aureus CLSI-based double dilution method; assay type: functional
Staphylococcus aureus [11] = assay: Antibacterial activity against Staphylococcus aureus ATCC 29213 CLSI-based double dilution method; assay type: functional
[12] = Stability in artificial gastric acid at 1 mg/ml assessed as residual rate after 3 hrs by HPLC analysis relative to control; assay type: ADME; details: read-out: Stability
Staphylococcus aureus [13] = assay: Antibacterial activity against methicillin-sensitive Staphylococcus aureus CLSI-based double dilution method; assay type: functional

| SMILES | remaining at 2 h, 1 mg/ml [1] | remaining at 2.5 h, 1 mg/ml [2] | MIC (Enterococcus faecium) | solubility [3] | MIC (Enterococcus faecalis) | remaining at 3.5 h, 1 mg/ml [4] | remaining at 0.5 h, 1 mg/ml [5] | remaining at 4 h, 1 mg/ml [6] | remaining at 1 h, 1 mg/ml [7] | remaining at 0 h, 1 mg/ml [8] | remaining at 1.5 h, 1 mg/ml [9] | MIC (Staphylococcus aureus [10]) | MIC (Staphylococcus aureus [11]) | remaining at 3 h, 1 mg/ml [12] | MIC (Staphylococcus aureus [13]) |
| --- | --- | --- | --- | --- | --- | --- | --- | --- | --- | --- | --- | --- | --- | --- | --- |
| CC(=O)NC[C@H]1CN(c2ccc(-c3ccc(/C=N/N4CCN(C)CC4)cc3)c(F)c2)C(=O)O1 | 16.1% | 0% | 0.0675 µg/mL (≈ 0.149 µM) | 71 µg/mL (≈ 157 µM) | 0.0675 µg/mL (≈ 0.149 µM) | 0% | 97.5% | 0% | 40.7% | 100% | 26.3% | 0.0675 µg/mL (≈ 0.149 µM) | 0.0675 µg/mL (≈ 0.149 µM) | 0% | 0.0675 µg/mL (≈ 0.149 µM) |
| CC(=O)NC[C@H]1CN(c2ccc(-c3ccc(/C=C/C(=O)N4CCNCC4)cc3)c(F)c2)C(=O)O1 | 91.7% | 91.5% | 0.5 µg/mL (≈ 1.07 µM) | 115 µg/mL (≈ 247 µM) | 0.25 µg/mL (≈ 0.536 µM) | 89.7% | 94.9% | 88.7% | 95.2% | 100% | 94.9% | 0.5 µg/mL (≈ 1.07 µM) | 0.5 µg/mL (≈ 1.07 µM) | 90.9% | 0.5 µg/mL (≈ 1.07 µM) |
| CC(=O)NC[C@H]1CN(c2ccc(-c3ccc(C(=O)N4CCSCC4)cc3)c(F)c2)C(=O)O1 | – | – | 2 µg/mL (≈ 4.37 µM) | – | 4 µg/mL (≈ 8.74 µM) | – | – | – | – | – | – | 2 µg/mL (≈ 4.37 µM) | 1 µg/mL (≈ 2.19 µM) | – | 2 µg/mL (≈ 4.37 µM) |
| CC(=O)NC[C@H]1CN(c2ccc(-c3ccc(/C=C/C(=O)N4CCSCC4)cc3)c(F)c2)C(=O)O1 | – | – | 2 µg/mL (≈ 4.14 µM) | – | 2 µg/mL (≈ 4.14 µM) | – | – | – | – | – | – | 2 µg/mL (≈ 4.14 µM) | 1 µg/mL (≈ 2.07 µM) | – | 1 µg/mL (≈ 2.07 µM) |
| CC(=O)NC[C@H]1CN(c2ccc(-c3ccc(/C=C/C(=O)NC4CCCC4)cc3)c(F)c2)C(=O)O1 | – | – | 1 µg/mL (≈ 2.15 µM) | – | 1 µg/mL (≈ 2.15 µM) | – | – | – | – | – | – | 1 µg/mL (≈ 2.15 µM) | 1 µg/mL (≈ 2.15 µM) | – | 1 µg/mL (≈ 2.15 µM) |
| CC(=O)NC[C@H]1CN(c2ccc(-c3ccc(/C=C/C(=O)N4CCCCC4)cc3)c(F)c2)C(=O)O1 | – | – | 1 µg/mL (≈ 2.15 µM) | – | 1 µg/mL (≈ 2.15 µM) | – | – | – | – | – | – | 1 µg/mL (≈ 2.15 µM) | 1 µg/mL (≈ 2.15 µM) | – | 1 µg/mL (≈ 2.15 µM) |
| CC(=O)NC[C@H]1CN(c2ccc(-c3ccc(C(=O)N4CCNCC4)cc3)c(F)c2)C(=O)O1 | – | – | 1 µg/mL (≈ 2.27 µM) | – | 1 µg/mL (≈ 2.27 µM) | – | – | – | – | – | – | 1 µg/mL (≈ 2.27 µM) | 1 µg/mL (≈ 2.27 µM) | – | 1 µg/mL (≈ 2.27 µM) |
| CC(=O)NC[C@H]1CN(c2ccc(-c3ccc(C(=O)N4CCCCC4)cc3)c(F)c2)C(=O)O1 | – | – | 1 µg/mL (≈ 2.28 µM) | – | 1 µg/mL (≈ 2.28 µM) | – | – | – | – | – | – | 1 µg/mL (≈ 2.28 µM) | 1 µg/mL (≈ 2.28 µM) | – | 1 µg/mL (≈ 2.28 µM) |
| CC(=O)NC[C@H]1CN(c2ccc(-c3ccc(/C=C/C(=O)N4CCCC4)cc3)c(F)c2)C(=O)O1 | – | – | 1 µg/mL (≈ 2.21 µM) | – | 1 µg/mL (≈ 2.21 µM) | – | – | – | – | – | – | 1 µg/mL (≈ 2.21 µM) | 1 µg/mL (≈ 2.21 µM) | – | 1 µg/mL (≈ 2.21 µM) |
| CC(=O)NC[C@H]1CN(c2ccc(-c3ccc(/C=C/C(=O)N4CCC(C)CC4)cc3)c(F)c2)C(=O)O1 | – | – | 1 µg/mL (≈ 2.09 µM) | – | 1 µg/mL (≈ 2.09 µM) | – | – | – | – | – | – | 1 µg/mL (≈ 2.09 µM) | 1 µg/mL (≈ 2.09 µM) | – | 1 µg/mL (≈ 2.09 µM) |
| CC(=O)NC[C@H]1CN(c2ccc(-c3ccc(C(=O)NC4CC4)cc3)c(F)c2)C(=O)O1 | – | – | 1 µg/mL (≈ 2.43 µM) | – | 1 µg/mL (≈ 2.43 µM) | – | – | – | – | – | – | 1 µg/mL (≈ 2.43 µM) | 1 µg/mL (≈ 2.43 µM) | – | 1 µg/mL (≈ 2.43 µM) |
| CC(=O)NC[C@H]1CN(c2ccc(-c3ccc(C(=O)N4CCOCC4)cc3)c(F)c2)C(=O)O1 | – | – | 2 µg/mL (≈ 4.53 µM) | – | 2 µg/mL (≈ 4.53 µM) | – | – | – | – | – | – | 2 µg/mL (≈ 4.53 µM) | 2 µg/mL (≈ 4.53 µM) | – | 2 µg/mL (≈ 4.53 µM) |
| CC(=O)NC[C@H]1CN(c2ccc(-c3ccc(/C=C/C(=O)N4CCOCC4)cc3)c(F)c2)C(=O)O1 | – | – | 2 µg/mL (≈ 4.28 µM) | – | 4 µg/mL (≈ 8.56 µM) | – | – | – | – | – | – | 2 µg/mL (≈ 4.28 µM) | 2 µg/mL (≈ 4.28 µM) | – | 2 µg/mL (≈ 4.28 µM) |
| CC(=O)NC[C@H]1CN(c2ccc(-c3ccc(C(=O)N4CCCC4)cc3)c(F)c2)C(=O)O1 | – | – | 2 µg/mL (≈ 4.7 µM) | – | 2 µg/mL (≈ 4.7 µM) | – | – | – | – | – | – | 1 µg/mL (≈ 2.35 µM) | 1 µg/mL (≈ 2.35 µM) | – | 1 µg/mL (≈ 2.35 µM) |
| CC(=O)NC[C@H]1CN(c2ccc(-c3ccc(/C=C/C(=O)NC4CC4)cc3)c(F)c2)C(=O)O1 | – | – | 1 µg/mL (≈ 2.29 µM) | – | 1 µg/mL (≈ 2.29 µM) | – | – | – | – | – | – | 1 µg/mL (≈ 2.29 µM) | 1 µg/mL (≈ 2.29 µM) | – | 1 µg/mL (≈ 2.29 µM) |
| CC(=O)NC[C@H]1CN(c2ccc(-c3ccc(C(=O)NC4CCCC4)cc3)c(F)c2)C(=O)O1 | – | – | 1 µg/mL (≈ 2.28 µM) | – | 1 µg/mL (≈ 2.28 µM) | – | – | – | – | – | – | 1 µg/mL (≈ 2.28 µM) | 1 µg/mL (≈ 2.28 µM) | – | 1 µg/mL (≈ 2.28 µM) |
| CC(=O)NC[C@H]1CN(c2ccc(N3CCOCC3)c(F)c2)C(=O)O1 [LINEZOLID] | – | – | 2 µg/mL (≈ 5.93 µM) | – | > 16 µg/mL | – | – | – | – | – | – | 1 µg/mL (≈ 2.96 µM) | 1 µg/mL (≈ 2.96 µM) | – | 1 µg/mL (≈ 2.96 µM) |
| CC(=O)NC[C@H]1CN(c2ccc(-c3ccc(CNCc4cnn[nH]4)cc3)c(F)c2)C(=O)O1 [RADEZOLID] | – | – | 0.5 µg/mL (≈ 1.14 µM) | – | 0.5 µg/mL (≈ 1.14 µM) | – | – | – | – | – | – | 0.5 µg/mL (≈ 1.14 µM) | 0.5 µg/mL (≈ 1.14 µM) | – | 0.5 µg/mL (≈ 1.14 µM) |
